Read-outs that look alike come from different tables or passages of the source.
Tests used:
[1] = Sensory evaluation of 472 ppm RebM80 + Brazzein in citric base; type: in vivo, human; details: Brazzein 1-15 ppm in 472 ppm of RebM80
Text: Example 6: Brazzein+Reb M (Taste Modifying Composition)

[2] = Sensory evaluation of 400 ppm A95 + Brazzein in citric base; type: in vivo, human; details: Brazzein 5 ppm to 20 ppm in 400 ppm of A95
Text: Example 7: Brazzein+Reb A95 (Taste Modifying Composition)
“A95” refers to a steviol glycoside blend comprising primarily reb D and reb M. Methods of obtaining A95 are provided in WO 2017/059414, incorporated herein by reference.

[3] = cited from earlier work
[4] = cited from earlier work; remark: listed apart in the source
[5] = cited from earlier work; remark: listed apart in the source

Brazzein: small, sweet-tasting protein from Pentadiplandra brazzeana Baillon; 53-amino acid minor form, SEQ ID NO: 1 (DKCKKVYENYPVSKCQLANQCNYDCKLDKHARSGECFYDEKRNLQCICDYCEY; listed as Pentadiplandra brazzeana)
Effect of Brazzein on taste property of 472 ppm RebM80 [1]: improves the taste property in 472 ppm of RebM80 such as, sour, less sweet, cover the bitterness and lingering. More mouthfeel, richness and fullbody. | Effect of Brazzein on taste of 400 ppm A95 [2]: can improve the mouthfeel, block bitterness and lingering in 400 ppm of A95 | Sweet taste after incubation ([3]; 80° C. for 4.5 h in the pH range of 2.5-8): remains | Sweet taste after incubation ([3]; 98° C. for 2 h): remains | Solubility [4]: > 50 mg/mL | Water solubility [4]: > 50 mg/mL | Taste similarity to sucrose ([5]; compared with thaumatin): more similar to sucrose than that of thaumatin | Sweetness of minor form relative to major form ([5]; minor form (des-pGlu1-brazzein) vs major form (pGlu-brazzein)): nearly twice the sweetness of the major form

Reference: patent US20220361544A1, “Compositions Containing Brazzein” (The Coca-Cola Company, priority 2019, published 2022)
